Experiment: IV and PO pharmacokinetics of CETP inhibitor compounds in male Sprague Dawley rats
Assay type: in vivo
Conditions: rat, 3 mg/kg PO, 1 mg/kg IV
Experimental: This following is to determine the pharmacokinetic parameters, including oral bioavailability, following a single 1 mg/kg intravenous bolus or a 3 mg/kg oral dose administration of the compound to male Sprague Dawley rats (n=4) in a crossover study design. The intravenous vehicle is 20% solutol microemulsion/80% deionized water. The oral vehicle is povidone USP 10%/SLS 0.5%/QS deionized water. In the intravenous arm, blood samples are collected at 0.08, 0.25, 0.5, 1, 2, 5, 8, 12, and 24 hours post-dose. In the oral arm, blood samples are collected at 0, 0.25, 0.5, 1, 2, 5, 8, 12, and 24 hours post-dose. Plasma is obtained by centrifugation, placed on ice, and frozen until samples are shipped on dry ice to Bioanalytical Systems, Inc. (BASi; West Lafayette, Ind.) for bioanalytical analysis. Concentrations of BCCA are determined by LC/MS/MS and pharmacokinetic parameters are calculated using a validated software program (Watson, Version 7.1). […]

With `Cc1cc2c(c(C)c1C(F)(F)F)N(CC1CCC(CC(=O)O)CC1)CCC[C@@H]2N(Cc1cc(C(F)(F)F)cc(C(F)(F)F)c1)c1nnn(C)n1` (stereo partly drawn) [compound 15, (S)-(4-{5-[(3,5-Bis-trifluoromethyl-benzyl)-(2-methyl-2H-tetrazol-5-yl)-amino]-7,9-dimethyl-8-trifluoromethyl-2,3,4,5-tetrahydro-benzo[b]azepin-1-ylmethyl}-cyclohexyl)-acetic acid] the “F % (AUC Extrap.) ± sd” value was 8 ± 3%.

Reference: patent US8329688B2, “Trans-4-[[(5S)-5-[[[3,5-bis(trifluoromethyl)phenyl]methyl](2-methyl-2H-tetrazol-5-yl)amino]-2,3,4,5-tetrahydro-7,9-dimethyl-1H-1-benzazepin-1-yl]methyl]-cyclohexanecarboxylic acid” (Eli Lilly and Company, priority 2009, dated 2012)
